These compounds were tested against T1, human TRPV1 (Homo sapiens, UniProt Q8NER1) (assay: Measurement of capsaicin-induced Ca influx in human TRPV1 transformed CHO cell line using FDSS-6000). Conditions: concentration at which the capsaicin concentration-reaction curve is shifted two times to the right, human TRPV1 transformed CHO cells.
T1 construct: expressed in transfected cells; host or cells: CHO-K1
Assay type: cell-based
From the text: [Measurement of Capsaicin-Induced Ca Influx in Human TRPV1 Transformed CHO Cell Line]
(1) Establishment of Human TRPV1 Transformed CHO Cell Line
Human vanilloid receptor 1 (hTRPV1) cDNA was cloned from a human brain. The cloned hTRPV1 cDNA was incorporated in a pCAGGS vector. The gene of the vector was introduced to a CHO-K1 cell line, thus performing transformation. Clones obtained by limiting dilution were stimulated with capsaicin. Clones with a high responsiveness were selected using an increase in the Ca concentration as an indicator. The selected clones were used for the following experiment.
(2) Measurement of Ca Influx Using FDSS-6000
The human TRPV1 transformed CHO cells were seeded in a 96-well plate (with black walls and transparent bottoms, manufactured by Greiner) at a density of 40,000 cells per well. The cells were cultured at 37° C. in 5% CO2 for one night. A loading solution of FLIPR Calcium 3 assay kit (manufactured by Molecular Devices Corporation) containing 2.5 mmol/L of probenecid was then added to each of the wells in the same amount as the culture medium, and the cells were cultured at 37° C. for 60 minutes. After the cells were stimulated with capsaicin (1 nmol/L to 1 μmol/L), the change in the Ca concentration in the cells was measured using FDSS-6000 (λex: 480 nm, λem: 540 nm, manufactured by Hamamatsu Photonics K.K.) for three minutes. The integrated values of the increase rate of the Ca concentration in the cells were calculated for a group treated with the compounds of the present invention and a group treated with a medium, thus allowing capsaicin concentration-reaction curves to be obtained. A concentration (A2 value) of each of the compounds of the present invention, at which the capsaicin concentration-reaction curve obtained when the cells were treated with the medium was shifted two times to the right side, was calculated. The inhibiting effects of the test compounds were compared using this value as an indicator.
In the case where a compound of the present invention is an agonist, when the cells are treated with the compound of the present invention prior to the capsaicin stimulation, the Ca influx is observed. In Table 1, compounds of the present invention having an A2 value of less than 100 nM are represented by A, and compounds having an A2 value of 100 nM or more are represented by B. When the A2 values of the compounds of the present invention were measured by the above-described method, the compounds have an intensity of 1 μM or less.

T1 sequence (Q8NER1 whole entry): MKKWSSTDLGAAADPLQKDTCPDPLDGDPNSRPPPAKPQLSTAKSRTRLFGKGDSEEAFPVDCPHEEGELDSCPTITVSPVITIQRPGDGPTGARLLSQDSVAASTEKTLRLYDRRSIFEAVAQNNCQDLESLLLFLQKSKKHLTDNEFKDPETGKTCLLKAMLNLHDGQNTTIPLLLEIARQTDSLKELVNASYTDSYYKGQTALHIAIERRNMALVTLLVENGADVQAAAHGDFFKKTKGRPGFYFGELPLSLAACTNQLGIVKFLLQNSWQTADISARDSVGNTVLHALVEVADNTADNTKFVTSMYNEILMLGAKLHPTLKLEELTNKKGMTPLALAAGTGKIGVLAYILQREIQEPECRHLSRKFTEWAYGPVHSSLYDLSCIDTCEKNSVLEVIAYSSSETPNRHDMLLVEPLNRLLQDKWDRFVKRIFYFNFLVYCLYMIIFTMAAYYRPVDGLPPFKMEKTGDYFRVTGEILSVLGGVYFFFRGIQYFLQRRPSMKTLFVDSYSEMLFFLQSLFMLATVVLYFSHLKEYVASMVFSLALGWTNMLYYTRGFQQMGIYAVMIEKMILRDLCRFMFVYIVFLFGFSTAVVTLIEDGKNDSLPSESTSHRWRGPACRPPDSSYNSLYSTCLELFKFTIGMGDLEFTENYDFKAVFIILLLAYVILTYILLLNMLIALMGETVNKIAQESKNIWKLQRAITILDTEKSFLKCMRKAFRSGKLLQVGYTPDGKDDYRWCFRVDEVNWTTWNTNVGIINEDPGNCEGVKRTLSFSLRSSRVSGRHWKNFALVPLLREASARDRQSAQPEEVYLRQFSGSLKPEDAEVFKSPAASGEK

With `O=C(/C=C1\CCCOc2cc(C(F)(F)F)ccc21)Nc1ccc2c(c1)N(CCO)C(=O)CO2` [Example 234, (E)-2-(8-trifluoromethyl-3,4-dihydrobenzo[b]oxepin-5(2H)-ylidene)-N-(4-(2-hydroxyethyl)-2H-1,4-benzoxazin-3(4H)-on-6-yl)acetamide] as the compound, how does the “A2 VALUE” read?
Its value is “A (compounds of the present invention having an A2 value of less than 100 nM are represented by A)”.

`Cc1sc2cnccc2c1NC(=O)/C=C1\CCCOc2cc(C(F)(F)F)ccc21` [Example 221, (E)-2-(8-trifluoromethyl-3,4-dihydrobenzo[b]oxepin-5(2H)-ylidene)-N-(2-methylthieno[2,3-c]pyridin-3-yl)acetamide] was tested. Which “A2 VALUE” did it give?
The value was “A (compounds of the present invention having an A2 value of less than 100 nM are represented by A)”.

How did the “A2 VALUE” turn out when `O=C(/C=C1\CCCOc2cc(C(F)(F)F)ccc21)Nc1ccc2c(c1)NC(=O)CC2` [Example 133, (E)-2-(8-trifluoromethyl-3,4-dihydrobenzo[b]oxepin-5(2H)-ylidene)-N-(3,4-dihydro-1H-quinolin-2-on-7-yl)acetamide] was run?
Its value is “A (compounds of the present invention having an A2 value of less than 100 nM are represented by A)”.

Which “A2 VALUE” does the source give for `O=C(/C=C1\CCN(C(=O)C2CCC(C(F)(F)F)CC2)c2cc(C(F)(F)F)ccc21)Nc1cccc2c1CC(O)CC2` (centres unmarked) [Example 110] here?
Its value is “A (compounds of the present invention having an A2 value of less than 100 nM are represented by A)”.

Which “A2 VALUE” does the source give for `O=C(/C=C1\CCCOc2cc(C(F)(F)F)ccc21)Nc1cccc2cnccc12` [Example 11, (E)-2-(8-trifluoromethyl-3,4-dihydrobenzo[b]oxepin-5(2H)-ylidene)-N-(isoquinolin-5-yl)acetamide] here?
Its value is “A (compounds of the present invention having an A2 value of less than 100 nM are represented by A)”.

`O=C(/C=C1\CCN(C(=O)C2CCOCC2)c2cc(C(F)(F)F)ccc21)Nc1ccc2cccnc2c1` [Example 53, (E)-2-(7-trifluoromethyl-2,3-dihydro-1-(4-pyranoyl)quinolin-4(1H)-ylidene)-N-(quinolin-7-yl)acetamide] was tested. Which “A2 VALUE” did it give?
The value was “A (compounds of the present invention having an A2 value of less than 100 nM are represented by A)”.

Which “A2 VALUE” does the source give for `O=C(/C=C1\CCCOc2cc(C(F)(F)F)ccc21)Nc1ccc(Oc2ccc(C(F)(F)F)cn2)cc1` [Example 27] here?
The value was “B (compounds having an A2 value of 100 nM or more are represented by B)”.

With `O=C(/C=C1\CCCOc2cc(C(F)(F)F)ccc21)Nc1ccc2c(c1)N(C(=O)CO)CCO2` [Example 231] as the compound, how does the “A2 VALUE” read?
Its value is “B (compounds having an A2 value of 100 nM or more are represented by B)”.

Which “A2 VALUE” does the source give for `Cc1ccc(S(=O)(=O)N2CC/C(=C\C(=O)Nc3ccc4cccnc4c3)c3ccc(C(F)(F)F)cc32)cc1` [Example 98, (E)-2-(7-trifluoromethyl-2,3-dihydro-1-(4-methylbenzenesulfonyl)quinolin-4(1H)-ylidene)-N-(quinolin-7-yl)acetamide] here?
The value was “A (compounds of the present invention having an A2 value of less than 100 nM are represented by A)”.

For `CC(C)(C)c1ccc2c(c1)OCC/C2=C\C(=O)Nc1ccc2cccnc2c1` [Example 5, (E)-2-(7-tert-butyl-chroman-4-ylidene)-N-(quinolin-7-yl)acetamide], which “A2 VALUE” is on record?
The value was “A (compounds of the present invention having an A2 value of less than 100 nM are represented by A)”.

For `O=C(/C=C1\CCN(C(=O)C2CC2)c2cc(C(F)(F)F)ccc21)Nc1ccc2cccnc2c1` [Example 99, (E)-2-(7-trifluoromethyl-2,3-dihydro-1-cyclopropanecarbonylquinolin-4(1H)-ylidene)-N-(quinolin-7-yl)acetamide], which “A2 VALUE” is on record?
The value was “A (compounds of the present invention having an A2 value of less than 100 nM are represented by A)”.

`O=C(/C=C1\CCCOc2cc(C(F)(F)F)ccc21)NCC1COc2ccccc2O1` (centres unmarked) [Example 34, (E)-2-(8-trifluoromethyl-3,4-dihydrobenzo[b]oxepin-5(2H)-ylidene)-N-((2,3-dihydrobenzo[b][1,4]dioxin-2-yl)methyl)acetamide] was tested. Which “A2 VALUE” did it give?
Its value is “B (compounds having an A2 value of 100 nM or more are represented by B)”.

`O=C(/C=C1\CCCOc2cc(C(F)(F)F)ccc21)Nc1ccc2c(c1)C(O)CC2` (centres unmarked) [Example 175, (E)-2-(8-trifluoromethyl-3,4-dihydrobenzo[b]oxepin-5(2H)-ylidene)-N-(indan-1-ol-6-yl)acetamide] was tested. Which “A2 VALUE” did it give?
Its value is “A (compounds of the present invention having an A2 value of less than 100 nM are represented by A)”.

Which “A2 VALUE” does the source give for `CC(NC(=O)/C=C1\CCCOc2cc(C(F)(F)F)ccc21)c1ccccn1` (centres unmarked) [Example 30, (E)-2-(8-trifluoromethyl-3,4-dihydrobenzo[b]oxepin-5(2H)-ylidene)-N-(1-(pyridin-2-yl)ethyl)acetamide] here?
Its value is “B (compounds having an A2 value of 100 nM or more are represented by B)”.

Which “A2 VALUE” does the source give for `O=C(/C=C1\CCCOc2cc(C(F)(F)F)ccc21)Nc1cccc2c1CC(O)C(=O)N2` (centres unmarked) [Example 67, (E)-2-(8-trifluoromethyl-3,4-dihydrobenzo[b]oxepin-5(2H)-ylidene)-N-(3-hydroxy-2-oxo-1,2,3,4-tetrahydroquinolin-5-yl)acetamide] here?
Its value is “A (compounds of the present invention having an A2 value of less than 100 nM are represented by A)”.

With `CC(C)(F)C(=O)N1CC/C(=C\C(=O)Nc2cccc3c2CC(O)CC3)c2ccc(C(F)(F)F)cc21` (centres unmarked) [Example 96, (E)-2-(1-(2-fluoro-2-methylpropanoyl)-7-trifluoromethyl-2,3-dihydroquinolin-4(1H)-ylidene)-N-(7-hydroxy-5,6,7,8-tetrahydronaphthalen-1-yl)acetamide] as the compound, how does the “A2 VALUE” read?
Its value is “A (compounds of the present invention having an A2 value of less than 100 nM are represented by A)”.

Which “A2 VALUE” does the source give for `O=C(/C=C1\CCN(C(=O)CCC(F)(F)F)c2cc(C(F)(F)F)ccc21)Nc1cccc2c1CC(O)CC2` (centres unmarked) [Example 91, (E)-2-(1-(4,4,4-trifluorobutanoyl)-7-trifluoromethyl-2,3-dihydroquinolin-4(1H)-ylidene)-N-(7-hydroxy-5,6,7,8-tetrahydronaphthalen-1-yl)acetamide] here?
The value was “A (compounds of the present invention having an A2 value of less than 100 nM are represented by A)”.

Which “A2 VALUE” does the source give for `Cn1nc(NC(=O)/C=C2\CCCOc3cc(C(F)(F)F)ccc32)c2cccnc21` [Example 41, (E)-2-(8-trifluoromethyl-3,4-dihydrobenzo[b]oxepin-5(2H)-ylidene)-N-(1-methyl-1H-pyrazolo[3,4-b]pyridin-3-yl)acetamide] here?
Its value is “B (compounds having an A2 value of 100 nM or more are represented by B)”.

For `O=C(/C=C1\CCN(C(=O)C2CCC2)c2cc(C(F)(F)F)ccc21)Nc1ccc2cccnc2c1` [Example 75, (E)-2-(1-cyclobutanecarbonyl-7-trifluoromethyl-2,3-dihydroquinolin-4(1H)-ylidene)-N-(quinolin-7-yl)acetamide], which “A2 VALUE” is on record?
Its value is “A (compounds of the present invention having an A2 value of less than 100 nM are represented by A)”.

`Cn1ccc2ccc(NC(=O)/C=C3\CCCOc4cc(C(F)(F)F)ccc43)cc21` [Example 152, (E)-2-(8-trifluoromethyl-3,4-dihydrobenzo[b]oxepin-5(2H)-ylidene)-N-(1-methylindol-6-yl)acetamide] was tested. Which “A2 VALUE” did it give?
Its value is “A (compounds of the present invention having an A2 value of less than 100 nM are represented by A)”.

How did the “A2 VALUE” turn out when `CC(C)(C)c1ccc2c(c1)OCC/C2=C\C(=O)NC1CCc2cccnc2C1` (centres unmarked) [Example 3, (E)-2-(7-tert-butyl-chroman-4-ylidene)-N-(5,6,7,8-tetrahydroquinolin-7-yl)acetamide] was run?
The value was “A (compounds of the present invention having an A2 value of less than 100 nM are represented by A)”.

How did the “A2 VALUE” turn out when `O=C(/C=C1\CCOc2cc(C(F)(F)F)ccc21)Nc1cccc2c1CC(O)C(=O)N2` (centres unmarked) [Example 121, (E)-N-(3-hydroxy-2-oxo-1,2,3,4-tetrahydroquinolin-5-yl)-2-(7-trifluoromethyl-chroman-4-ylidene)acetamide] was run?
Its value is “A (compounds of the present invention having an A2 value of less than 100 nM are represented by A)”.

How did the “A2 VALUE” turn out when `O=C(/C=C1\CCCOc2cc(C(F)(F)F)ccc21)Nc1cccc2[nH]ncc12` [Example 253, (E)-2-(8-trifluoromethyl-3,4-dihydrobenzo[b]oxepin-5(2H)-ylidene)-N-(1H-indazol-4-yl)acetamide] was run?
Its value is “A (compounds of the present invention having an A2 value of less than 100 nM are represented by A)”.

Source: patent US7910751B2, “Heterocyclidene acetamide derivative” (Mochida Pharmaceutical Co., Ltd., priority 2005, dated 2011)
